Test results reported in PMC9269349, “Characterization of Four New Compounds from Protea cynaroides Leaves and Their Tyrosinase Inhibitory Potential” (Plants, 2022).

biological target: mushroom tyrosinase (Agaricus bisporus, UniProt C7FF04); assay: Antityrosinase inhibition assay (L-tyrosine substrate, absorbance at 490 nm); assay type: biochemical; conditions: against L-tyrosine substrate
Protocol: The skin enzymatic inhibitory assay was executed during the study following the approach used by Curto et al. and Nerya et al.. Extracts and isolates were dissolved in dimethyl sulfoxide (DMSO) to a final concentration of 20 mg/mL. […] After incubation at room temperature for 5 min, 110 μL of the substrate (2 mM L-tyrosine) was added to each well. […] Incubation commenced for 30 min at room temperature by measuring the absorbance at 490 nm with the […]1.11).

Sequence of mushroom tyrosinase (G1K3P4 entry or part of it): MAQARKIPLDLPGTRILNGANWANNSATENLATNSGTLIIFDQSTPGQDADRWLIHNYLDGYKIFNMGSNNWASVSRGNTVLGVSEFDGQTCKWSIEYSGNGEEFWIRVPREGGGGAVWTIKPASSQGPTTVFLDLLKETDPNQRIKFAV
Sequence of mushroom tyrosinase (C7FF04 1-392): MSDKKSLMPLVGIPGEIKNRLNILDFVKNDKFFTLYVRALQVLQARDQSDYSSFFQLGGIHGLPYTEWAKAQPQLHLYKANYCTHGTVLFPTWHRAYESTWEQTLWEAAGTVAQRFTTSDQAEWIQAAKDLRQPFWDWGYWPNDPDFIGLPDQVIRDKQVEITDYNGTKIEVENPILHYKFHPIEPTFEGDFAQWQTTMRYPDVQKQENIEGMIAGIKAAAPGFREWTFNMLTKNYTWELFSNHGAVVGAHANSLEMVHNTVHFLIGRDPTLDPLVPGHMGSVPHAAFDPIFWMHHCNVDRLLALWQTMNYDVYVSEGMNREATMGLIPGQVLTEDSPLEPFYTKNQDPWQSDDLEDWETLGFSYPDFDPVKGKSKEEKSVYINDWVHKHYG

Structure (SMILES)	tyrosinase inhibitory activity (in words)
O=C(OCC1OC(Oc2c(CO)occc2=O)C(O)C(O)C1O)c1ccc(O)cc1 (centres unmarked) [Compound 3]	low inhibitory activity
O=C(O)c1ccc(O)cc1 [Compound 6, 4-hydroxybenzoic acid]	weak activity
O=C(O)c1ccc(O)c(O)c1 [Compound 7, 3,4-dihydroxybenzoic acid]	potent competitive tyrosinase inhibition

The next lines start with the values.

tyrosinase inhibitory activity (in words)	Structure (SMILES)
weak activity	OC[C@H]1OC[C@H](O)[C@@H](O)[C@@H]1O [Compound 5, 1,5-anhydro-D-glucitol]
potent competitive tyrosinase inhibition	O=c1c(O)coc(CO)c1O [Compound 8, 3-hydroxykojic acid]
